Data: US10842806B2, “Methods for treating ocular inflammatory disorders” (Massachusetts Eye and Ear Infirmary, priority 2011, dated 2020)

Test system: adherent leukocytes in retinal vessels
Test: Leukocyte adhesion to retinal vessels (Concanavalin A lectin staining)
Format: in vivo, Lewis rats
Experimental: Male Lewis rats ranging from 6-8 weeks old (Charles River, Wilmington, Mass.) were used for these studies. To study the effects of AICAR pretreatment, AICAR and PBS (for placebo treatment) were delivered via intraperitoneal injection of AICAR (50 mg/kg or 100 mg/kg body weight; Sigma) diluted in 150 μl PBS or equal volume of PBS at 6 hours before and at the same time as LPS injection. Four experimental groups of rats were compared: (1) Normal: no treatment (2) AICAR: normal rats treated with AICAR 6 hours before examination; (3) LPS: EIU rats treated with PBS; (4) LPS+AICAR: EIU rats treated with AICAR. Two additional groups of rats were used to study the effects of AICAR (50 mg/kg) given either at the same time as LPS injection or at 6 hours after LPS injection. Inflammation in the posterior segment of the eye is seen in EIU with the adherence of recruited leukocytes to the retinal vascular endothelium (Koizumi et al. (2003) INVEST. OPHTHALMOL. VIS. SCI. 44:2184-2191). Leukocyte adhesion to the retinal vessels was evaluated at 24 hours after EIU induction by using the Concanavalin A (Con A) lectin staining technique (Smith et al. (1994) INVEST. OPHTHALMOL. VIS. SCI. 35:101-111). […] The flatmounts were imaged using an epifluorescence microscope (DM RXA; Leica) and the total number of Con A-stained adherent leukocytes per retina was counted.

With `NC(=O)c1ncn([C@@H]2O[C@H](CO)[C@@H](O)[C@H]2O)c1N` [AICAR, 5-aminoimidazole-4-carboxamide-1-β-d-ribofuranoside] the “Number of Con A-stained adherent leukocytes per retina” value (AICAR 50 mg/kg pretreatment, 24 h after LPS, n=11, EIU rats 1163±244) was 576±249 cells and the “Adherent leukocytes in AICAR-only-treated rats” value (normal rats, AICAR only, n=6) was “few adherent leukocytes”.
